In this experiment the test system is human platelets (platelet rich plasma), ADP-induced aggregation. The experiment is described as follows: In vitro test for inhibition of human platelet aggregation induced by ADP. Type of experiment: cell-based. To be noted: 5 μM ADP; human PRP; mean of n experiments; entries marked b measured with a Chronolog aggregometer, others with micro plate reader; read-out: Inhibition of ADP-induced (5 μM) human platelet aggregation (IC50), mean. An excerpt:
I.a. In vitro Test for Inhibition of Human Platelet Aggregation Induced by ADP
Addition of adenosine diphosphate (ADP) to human platelet rich plasma (PRP) in vitro induces platelet aggregation. This aggregation can be assessed by measuring the optical density (OD) of the PRP. The in vitro test described here was used to determine the inhibitory activity of a test compound on the ADP-induced aggregation of human platelets. A micro plate reader is used to measure the activity of several compounds simultaneously.
An alternative vehicle is 0.9% NaCl in MQ H2O. The compound solution (either in MQ H2O or 0.9% NaCl in MQ H2O) is further diluted in 0.9% NaCl in MQ H2O.
Free-flowing blood (at least 100 mL) is taken from a healthy volunteer and collected in 0.1 volume 3.8% sodium citrate. 2H2O in distilled H2O (w/v). The final concentration is 0.38% sodium citrate.
The citrated blood is centrifuged at 1,600 N/kg (160 g) at RT. After 15 min, centrifugation is discontinued with the brake turned off and the supernatant (=PRP) is collected. • 2. ADP (Kordia/Chrono-par # 384). Before use, a solution of 50 μM in 0.9% NaCl is prepared. Equipment • 1. Sysmex blood cell counter model KX-21. • 2. Labsystems iEMS reader MF with a 620 nm filter, an orbital shaker set at 1,000 rpm and a constant temperature of 37° C. Absorption is measured with the Labsystems iEMS program. • 3. Blood collection system 600 mL with needle, art P4203 (NPBI). • 4. 96 wells flat bottom micro plates (Greiner Labortechnik). Procedure
The platelets in the supernatant (PRP) are counted using a Sysmex blood cell counter and the supernatant is diluted with PPP to obtain a PRP containing 400,000±50,000 plt/μL. PRP should stabilize at RT for at least 20 min but not longer than 3 h.
150 μL PRP is pipetted into a well of the micro plate. 30 μL test compound in a range of concentrations (7 concentrations per compound) or vehicle is added and the micro plate is placed in the Labsystems iEMS reader MF at 37° C. The optical density (OD620) is then measured at 620 nm. After shaking for 2 min in the reader (1,000 rpm), the OD is measured for the second time. This is to verify the stability of the platelets (absence of spontaneous platelet aggregation). Then, 20 μL of 50 μM ADP solution is added and the OD is kinetically measured every min for 14 min at 620 nm (FIG. 1). Between two measurements, the plate is shaking for 40 seconds at 1,000 rpm. Each test compound is investigated in at least 2 experiments using PRP from different volunteers.
The mean OD at each compound concentration (including vehicle) is calculated at t=0 min and t=10 min. The percentage inhibition at each concentration is calculated using the formula: […]
The IC50 of the test compound is the concentration of the test compound at which the ADP-induced platelet aggregation is reduced by 50%. For this, the percentage inhibition values are plotted against compound concentration. Then, IC50, nH (Hill slope) and efficacy of the test compound is calculated using Graphpad Prism 3.0 (with variable slope).
Reference: Salmon, D. M. (1996) Thrombosis Research 84, 213-216.

On to “Methyl O-2,3-di-O-methyl-4-O-<<12-N-<N-(3-keto-benzenesulfonyl)-4-O-{4-(4-piperidinyl)-butyl}-L-tyrosine>-12-aza-3,6,9-trioxa-dodecyl>>-6-O-sulfo-alpha-D-glucopyranosyl-(1->4)-O-2,3-di-O-methyl-beta-D-glucopyranuronosyl-(1->4)-O-2,3,6-tri-O-sulfo-alpha-D-glucopyranosyl-(1->4)-O-2,3-di-O-methyl-alpha-L-idopyranuronosyl-(1>4)-3-O-methyl-2,6-di-O-sulfo-alpha-D-glucopyranoside octakis sodium salt [XIV]”, for which the IC50 is 630 nM.

A word on the IC50: it is the concentration needed to halve the response being measured.

(Values after US7576071B2, “Antithrombotic compound” (sanofi-aventis, priority 2004, dated 2009).)
